| SMILES | melting point |
| --- | --- |
| CN1COc2c(N3CCC(C(O)c4nccs4)C3)c(F)cc3c(=O)c(C(=O)O)cn1c23 (stereo not drawn) (hydrate or solvate) [Example 38, 8-Fluoro-9-[3-(hydroxy-thiazol-2-yl-methyl)-pyrrolidin-1-yl]-3-methyl-6-oxo-2,3-dihydro-6H-1-oxa-3,3a-diaza-phenalene-5-carboxylic acid] | 215 to 217 °C |
| Cc1cnc(NC2CCN(c3c(F)cc4c(=O)c(C(=O)O)cn5c4c3OCN5C)C2)s1 (stereo not drawn) (hydrate or solvate) | 265 °C (dec.) |
| CN1COc2c(N3CCC(NC(=O)CC(F)(F)F)C3)c(F)cc3c(=O)c(C(=O)O)cn1c23 (stereo not drawn) (hydrate or solvate) | 292 °C (dec.) |
| CN1COc2c(N3C[C@@H](N)C(C)(C)C3)c(F)cc3c(=O)c(C(=O)O)cn1c23 (hydrate or solvate) [Example 34, 9-((S)-4-Amino-3,3-dimethyl-pyrrolidin-1-yl)-8-fluoro-3-methyl-6-oxo-2,3-dihydro-6H-1-oxa-3,3a-diaza-phenalene-5-carboxylic acid] | 230 °C (dec.) |
| CN1COc2c(N3CCC(NC(=O)c4ccco4)C3)c(F)cc3c(=O)c(C(=O)O)cn1c23 (stereo not drawn) (hydrate or solvate) | 306 to 308 °C |
| CN1COc2c(N3CCC(O)(c4nccs4)C3)c(F)cc3c(=O)c(C(=O)O)cn1c23 (stereo not drawn) (hydrate or solvate) | 252 to 253 °C |
| Cc1cc(NC2CCN(c3c(F)cc4c(=O)c(C(=O)O)cn5c4c3OCN5C)C2)on1 (stereo not drawn) (hydrate or solvate) | 244 °C (dec.) |
| CN1n2cc(C(=O)O)c(=O)c3ccc(N4CC[C@@H](Nc5nccs5)C4)c(c32)OC1(C)C (hydrate or solvate) | 287 °C (dec.) |
| Cc1nnc(NC2CCN(c3c(F)cc4c(=O)c(C(=O)O)cn5c4c3OCN5C)C2)o1 (stereo not drawn) (hydrate or solvate) | 285 °C |
| CN1COc2c(N3CCC(NC4=NCCS4)C3)c(F)cc3c(=O)c(C(=O)O)cn1c23 (stereo not drawn) (hydrate or solvate) | 265 to 267 °C |
| Cc1nnc(NCC2CCN(c3c(F)cc4c(=O)c(C(=O)O)cn5c4c3OCN5C)C2)o1 (stereo not drawn) (hydrate or solvate) | 240 °C |
| CN1COc2c(N3CCC(CNc4nccs4)C3)c(F)cc3c(=O)c(C(=O)O)cn1c23 (stereo not drawn) (hydrate or solvate) | 268 to 270 °C |
| CN1COc2c(N3CCC(C(N)c4nccs4)C3)c(F)cc3c(=O)c(C(=O)O)cn1c23 (stereo not drawn) (hydrate or solvate) [Example 39, 9-[3-(Amino-thiazol-2-yl-methyl)-pyrrolidin-1-yl]-8-fluoro-3-methyl-6-oxo-2,3-dihydro-6H-1-oxa-3,3a-diaza-phenalene-5-carboxylic acid] | 233 to 235 °C |
| CC1Oc2c(N3CC[C@@H](Nc4nccs4)C3)ccc3c(=O)c(C(=O)O)cn(c23)N1C (stereo partly drawn) (hydrate or solvate) | 260 to 263 °C |
| CN1COc2c(N3CCC(NS(C)(=O)=O)C3)c(F)cc3c(=O)c(C(=O)O)cn1c23 (stereo not drawn) (hydrate or solvate) | 261 °C (dec.) |
| CN1COc2c(N3CCC(Nc4cnccn4)C3)c(F)cc3c(=O)c(C(=O)O)cn1c23 (stereo not drawn) (hydrate or solvate) [Example 7] | 269 °C (dec.) |
| CN1COc2c(N3CC[C@@H](Nc4nccs4)C3)ccc3c(=O)c(C(=O)O)cn1c23 (hydrate or solvate) | 275 °C (dec.) |
| CN1COc2c(N3CCC(Nc4ncns4)C3)c(F)cc3c(=O)c(C(=O)O)cn1c23 (stereo not drawn) (hydrate or solvate) | 285 °C (dec.) |
| CN1COc2c(N3CCC(Nc4nccs4)CC3)c(F)cc3c(=O)c(C(=O)O)cn1c23 (hydrate or solvate) | 280 °C |
| CN1COc2c(N3CCC(N4CCCCC4)CC3)c(F)cc3c(=O)c(C(=O)O)cn1c23 (hydrate or solvate) | 249 °C (dec.) |
| CN1n2cc(C(=O)O)c(=O)c3cc(F)c(N4CC[C@H](NC(=O)C(F)(F)F)C4)c(c32)OC1(C)C (hydrate or solvate) [51] | 217 to 219 °C |
| CN1COc2c(N3CC[C@H](Nc4ncc[nH]4)C3)c(F)cc3c(=O)c(C(=O)O)cn1c23 (hydrate or solvate) | 245 °C (dec.) |
| CO/N=C1\CCN(c2c(F)cc3c(=O)c(C(=O)O)cn4c3c2OCN4C)C1 (hydrate or solvate) | 241 to 243 °C |

| SMILES | melting point |
| --- | --- |
| CN1n2cc(C(=O)O)c(=O)c3cc(F)c(N4CC[C@H](NC(=O)C(F)(F)F)C4)c(c32)OC1(C)C (hydrate or solvate) [53] | 283 °C |
| CN1COc2c(N3CCC(N4CCCC4)CC3)c(F)cc3c(=O)c(C(=O)O)cn1c23 (hydrate or solvate) | 267 to 269 °C |
| CN1COc2c(N3CC(N)C(C)(C)C3)c(F)cc3c(=O)c(C(=O)O)cn1c23 (racemic) (hydrate or solvate) [Example 33, 9-((R,S)-4-Amino-3,3-dimethyl-pyrrolidin-1-yl)-8-fluoro-3-methyl-6-oxo-2,3-dihydro-6H-1-oxa-3,3a-diaza-phenalene-5-carboxylic acid] | 237 °C (dec.) |
| CN1COc2c(N3C[C@H](Nc4nccs4)C(C)(C)C3)c(F)cc3c(=O)c(C(=O)O)cn1c23 (hydrate or solvate) | 271 to 273 °C |
| CN1COc2c(N3CCC(CNC(=O)c4ccco4)C3)c(F)cc3c(=O)c(C(=O)O)cn1c23 (stereo not drawn) (hydrate or solvate) | 278 to 280 °C |
| CN1COc2c(N3CCC(c4nnn[nH]4)C3)c(F)cc3c(=O)c(C(=O)O)cn1c23 (stereo not drawn) (hydrate or solvate) | 250 °C (dec.) |
| Cc1cc(NC2CCN(c3c(F)cc4c(=O)c(C(=O)O)cn5c4c3OCN5C)C2)no1 (stereo not drawn) (hydrate or solvate) | 263 °C (dec.) |
| CN1COc2c(N3CC[C@@H](Nc4ncc[nH]4)C3)c(F)cc3c(=O)c(C(=O)O)cn1c23 (hydrate or solvate) | 225 °C (dec.) |
| CN1COc2c(N3CC(O)C(C)(C)C3)c(F)cc3c(=O)c(C(=O)O)cn1c23 (stereo not drawn) (hydrate or solvate) | 281 °C (dec.) |
| CN1COc2c(N3CC[C@H](n4ccnn4)C3)c(F)cc3c(=O)c(C(=O)O)cn1c23 (hydrate or solvate) | 235 °C (dec.) |
| CN1COc2c(N3CCC(Nc4cnccn4)CC3)c(F)cc3c(=O)c(C(=O)O)cn1c23 (hydrate or solvate) | 239 °C (dec.) |
| CN1COc2c(N3CC[C@H](NC(=O)C(F)(F)F)C3)ccc3c(=O)c(C(=O)O)cn1c23 (hydrate or solvate) | 310 °C (dec.) |
| CN1n2cc(C(=O)O)c(=O)c3cc(F)c(N4C[C@H](N)C(C)(C)C4)c(c32)OC1(C)C (hydrate or solvate) | 255 to 257 °C |
| CN1COc2c(N3CC[C@H](NC(=O)C(F)(F)F)C3)c(F)cc3c(=O)c(C(=O)O)cn1c23 (hydrate or solvate) [Example 28, 8-Fluoro-3-methyl-6-oxo-9-[(S)-3-(2,2,2-trifluoro-acetylamino)-pyrrolidin-1-yl]-2,3-dihydro-6H-1-oxa-3,3a-diaza-phenalene-5-carboxylic acid] | 273 to 275 °C |
| CN1COc2c(N3CCC(Nc4ccccn4)C3)c(F)cc3c(=O)c(C(=O)O)cn1c23 (stereo not drawn) (hydrate or solvate) [Example 8] | 278 to 280 °C |
| CN1COc2c(N3C[C@@H](Nc4nccs4)C(C)(C)C3)c(F)cc3c(=O)c(C(=O)O)cn1c23 (hydrate or solvate) | 265 °C (dec.) |
| CN1COc2c(N3CCC(Nc4ccccn4)CC3)c(F)cc3c(=O)c(C(=O)O)cn1c23 (hydrate or solvate) | 264 °C (dec.) |
| CN1COc2c(N3CC[C@@H](NC(=O)C(F)(F)F)C3)c(F)cc3c(=O)c(C(=O)O)cn1c23 (hydrate or solvate) [Example 29, 8-Fluoro-3-methyl-6-oxo-9-[(R)-3-(2,2,2-trifluoro-acetylamino)-pyrrolidin-1-yl]-2,3-dihydro-6H-1-oxa-3,3a-diaza-phenalene-5-carboxylic acid] | 273 to 275 °C |
| CC1Oc2c(N3C[C@H](N)C(C)(C)C3)c(F)cc3c(=O)c(C(=O)O)cn(c23)N1C (stereo partly drawn) (hydrate or solvate) | 212 to 214 °C |
| CN1COc2c(N3C[C@H](N)C(C)(C)C3)c(F)cc3c(=O)c(C(=O)O)cn1c23 (hydrate or solvate) [Example 35, 9-((R)-4-Amino-3,3-dimethyl-pyrrolidin-1-yl)-8-fluoro-3-methyl-6-oxo-2,3-dihydro-6H-1-oxa-3,3a-diaza-phenalene-5-carboxylic acid] | 222 °C (dec.) |
| CN1COc2c(N3CCC(n4ccnn4)C3)c(F)cc3c(=O)c(C(=O)O)cn1c23 (stereo not drawn) (hydrate or solvate) | 264 °C (dec.) |
| CC1Oc2c(N3CC[C@@H](Nc4nccs4)C3)c(F)cc3c(=O)c(C(=O)O)cn(c23)N1C (stereo partly drawn) (hydrate or solvate) | 224 to 226 °C |
